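Where inhibition never reached the appropriate level, the endpoint shown equals the highest concentration tested. Otherwise, values were interpolated linearly from a five-concentration, 48-hour dose response in 96-well plates. At the GI50, growth is halved.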 Activity calls are given as the source filed them. Cut-off read from the data, not from the text of the source: active = GI50 up to about 1.1 µM and inactive = higher. Where only a bound is given, the exact number is not on record here.

Test systems include NCI-H226; OVCAR-3; HCT-15; RPMI-8226; U-251; IGROV-1; SK-MEL-2; SW-620; SNB-75; OVCAR-8; TK-10; OVCAR-4; SN12C; EKVX; SNB-19; HCC 2998; M14; A549; MDA-N.
What all share (experiment): inhibition of tumour cell growth, NCI panel, 48 h

With `O=S(=O)(c1ccccc1)N1CN2CN(C1)CN(S(=O)(=O)c1ccccc1)C2`, the GI50 with NCI-H226 was > 100 µM (inactive); in the experiment on OVCAR-3 it was > 100 µM (inactive); with HCT-15, > 100 µM; in the experiment on RPMI-8226, > 100 µM (inactive); in the experiment with U-251, 97.3 µM (inactive); in the experiment with IGROV-1, > 100 µM (inactive). Further, the GI50 with SK-MEL-2 is > 100 µM (inactive); in the experiment on SW-620 it was > 100 µM (inactive); in the experiment with SNB-75 it was 22.7 µM (inactive); in the experiment with OVCAR-8 it was > 100 µM (inactive); with TK-10 it was > 100 µM (inactive); in the experiment on OVCAR-4, > 100 µM (inactive). Moreover, the GI50 with SN12C, with EKVX, in the experiment with SNB-19, in the experiment on HCC 2998, with M14 and with A549 was > 100 µM (inactive) each time.

With `NS(=O)(=O)c1cccc(NC(=S)NC(=O)Nc2ccc(Cl)c(Cl)c2)c1`, the GI50 is 17.3 µM in the experiment with HCT-15; 16.9 µM (inactive) in the experiment on RPMI-8226; 22.3 µM (inactive) in the experiment on U-251; 20 µM (inactive) in the experiment on IGROV-1; 23.2 µM (inactive) in the experiment with SK-MEL-2; 18.6 µM (inactive) in the experiment with MDA-N. The GI50 is 19 µM (inactive) in the experiment with SW-620; 18.3 µM (inactive) with SNB-75; 17.3 µM (inactive) with OVCAR-8; 32.5 µM (inactive) in the experiment on TK-10; 22.2 µM (inactive) in the experiment with OVCAR-4; 17.7 µM (inactive) in the experiment with SN12C. For the same compound, the values for the GI50 in the experiment on SNB-19, with M14 and with A549 were 21.2 µM (inactive), 14.2 µM (inactive) and 20.5 µM (inactive), respectively.

Turning to `C[N+](C)(C)CC(=O)N/N=C(\Cc1nc2ccc([N+](=O)[O-])cc2nc1O)C(=O)Nc1nc2ccc([N+](=O)[O-])cc2s1`, the GI50 in the experiment with NCI-H226 is 25.4 µM (inactive); with OVCAR-3, 31.8 µM (inactive); with HCT-15, 28 µM; in the experiment on RPMI-8226, 34.5 µM (inactive); with U-251 it was 56.6 µM (inactive); in the experiment on IGROV-1 it was 23.5 µM (inactive). The GI50 with SK-MEL-2 is 28.1 µM (inactive); in the experiment on SW-620 it was 78 µM (inactive); in the experiment on SNB-75, 21.5 µM (inactive); in the experiment on OVCAR-8, 74.3 µM (inactive); in the experiment with TK-10 it was 67.6 µM (inactive); with OVCAR-4, 30 µM (inactive). The GI50 in the experiment with SN12C was 89.1 µM (inactive); in the experiment with EKVX it was 25 µM (inactive); in the experiment on HCC 2998, 36.9 µM (inactive); with M14, 55.1 µM (inactive); with A549, 36.3 µM (inactive).

`COc1ccc(OC)c2c1C=C[C@H](C1(C)SCCS1)C2C(C)=O` (stereo partly drawn): the GI50 in the experiment with NCI-H226 is 24 µM (inactive); in the experiment on OVCAR-3, 29.3 µM (inactive); in the experiment on HCT-15, 33.1 µM; in the experiment with RPMI-8226, 18.6 µM (inactive); with U-251, 26.1 µM (inactive); with IGROV-1, 42.4 µM (inactive). In addition, the GI50 in the experiment with SW-620 is 33.1 µM (inactive); in the experiment with OVCAR-8, 44.2 µM (inactive); with TK-10 it was 40.2 µM (inactive); in the experiment with OVCAR-4, 42.5 µM (inactive); in the experiment on SN12C, 35.3 µM (inactive); in the experiment with EKVX it was 41.1 µM (inactive). In addition, the GI50 with SNB-19 is 27.4 µM (inactive); in the experiment with HCC 2998, 50.1 µM (inactive); in the experiment on M14, 31.2 µM (inactive); with A549, 34.1 µM (inactive).

`COc1ccc(C2=C3SC=c4ccccc4=C3ON=C2c2ccccc2)cc1`: the GI50 with NCI-H226 was > 100 µM (inactive); in the experiment on OVCAR-3, 94.8 µM (inactive); with HCT-15, > 100 µM; in the experiment on RPMI-8226, 69.2 µM (inactive); in the experiment with U-251, > 100 µM (inactive); in the experiment with IGROV-1, > 100 µM (inactive). The GI50 in the experiment with SK-MEL-2, with SW-620, in the experiment on OVCAR-8, in the experiment on TK-10, in the experiment on OVCAR-4 and in the experiment on SN12C was > 100 µM (inactive) throughout. Besides, the GI50 in the experiment with EKVX, with SNB-19, in the experiment on HCC 2998, with M14 and in the experiment with A549 was > 100 µM (inactive) throughout.

As for `Cc1cc(C)c2c(c1)C1=NCCN1C2(O)c1ccc(Cl)cc1` (stereo not drawn), the GI50 in the experiment on OVCAR-3 was 15.5 µM (inactive); in the experiment with HCT-15, 17.2 µM; in the experiment with RPMI-8226, 13.6 µM (inactive); in the experiment with U-251 it was 17.7 µM (inactive); with IGROV-1 it was 14.2 µM (inactive); in the experiment with SK-MEL-2 it was 18.5 µM (inactive). Moreover, the GI50 in the experiment on MDA-N was 15.1 µM (inactive); with SW-620, 15.6 µM (inactive); with SNB-75 it was 12.3 µM (inactive); with OVCAR-8 it was 15.8 µM (inactive); in the experiment with TK-10, 2.79 µM (inactive); with OVCAR-4, 15.5 µM (inactive). The GI50 in the experiment with SN12C was 16.5 µM (inactive); with EKVX, 16.1 µM (inactive); with SNB-19 it was 16.2 µM (inactive); in the experiment on M14, 14.5 µM (inactive); with A549, 18.2 µM (inactive).

For `CSC(=S)NN=C1CCCC1.CSC(=S)NN=C1CCCC1.[Zn+2]`, the GI50 was 43.9 µM (inactive) with NCI-H226; 24.6 µM (inactive) with OVCAR-3; 1.99 µM in the experiment on HCT-15; 11.5 µM (inactive) with RPMI-8226; 8.93 µM (inactive) in the experiment on U-251; 10.1 µM (inactive) in the experiment with IGROV-1. In addition, the GI50 in the experiment on SK-MEL-2 was 22.7 µM (inactive); in the experiment on SW-620, 17.1 µM (inactive); in the experiment with SNB-75, > 100 µM (inactive); in the experiment with OVCAR-8, 14.4 µM (inactive); with TK-10, 19.8 µM (inactive); with OVCAR-4, 52.5 µM (inactive). In addition, the GI50 is 17.9 µM (inactive) with SN12C; 55.1 µM (inactive) in the experiment on EKVX; 40.9 µM (inactive) with SNB-19; 40.1 µM (inactive) with M14; 18.8 µM (inactive) in the experiment on A549.

`Cc1cc(C)c(N[S+]([O-])c2cccc(Cl)c2)c(C)c1` (stereo not drawn): the GI50 in the experiment with NCI-H226 was > 100 µM (inactive); in the experiment on OVCAR-3, > 100 µM (inactive); in the experiment on HCT-15, > 100 µM; in the experiment on RPMI-8226 it was > 100 µM (inactive); in the experiment with U-251, > 100 µM (inactive); in the experiment on MDA-N, > 100 µM (inactive). Also, the GI50 in the experiment with SW-620, in the experiment with OVCAR-8, with TK-10, in the experiment on SN12C, with EKVX and with SNB-19 was > 100 µM (inactive) each time. Further, the GI50 with M14 and in the experiment with A549 was > 100 µM (inactive) each time.

As to `CC1(C)CC(=O)c2c(nc3ccc4ccccc4c3c2-c2ccc(NC(=O)CCCCC(=O)Nc3ccc(-c4c5c(nc6ccc7ccccc7c46)CC(C)(C)CC5=O)cc3)cc2)C1`, the GI50 is > 100 µM (inactive) in the experiment with NCI-H226; > 100 µM (inactive) with OVCAR-3; > 100 µM with HCT-15; > 100 µM (inactive) in the experiment with RPMI-8226; > 100 µM (inactive) in the experiment with U-251; > 100 µM (inactive) in the experiment on IGROV-1. Also, the GI50 in the experiment with SK-MEL-2, in the experiment with MDA-N, in the experiment on SW-620, in the experiment with SNB-75, in the experiment on OVCAR-8 and with TK-10 was > 100 µM (inactive) each time. Further, the GI50 in the experiment with SN12C, in the experiment on EKVX, with SNB-19, in the experiment with M14 and with A549 was > 100 µM (inactive) each time.

With `CCOC(=O)c1cc(C2=C(S)N(CC(C)CC)CC2)c(C(=O)CC)[nH]1` (stereo not drawn), the GI50 in the experiment on NCI-H226 is 23.5 µM (inactive); in the experiment with HCT-15, 10.2 µM; in the experiment with RPMI-8226, 5.36 µM (inactive); in the experiment with U-251 it was 13.1 µM (inactive); in the experiment with IGROV-1, 20.3 µM (inactive); with SK-MEL-2, 22.1 µM (inactive). The GI50 in the experiment on MDA-N was 14.3 µM (inactive); in the experiment with SW-620, 6.01 µM (inactive); with SNB-75, 19.7 µM (inactive); with OVCAR-8, 21.5 µM (inactive); with TK-10, 15.3 µM (inactive); with OVCAR-4, 14.5 µM (inactive). The GI50 in the experiment with SN12C is 18.7 µM (inactive); in the experiment with EKVX it was 17.5 µM (inactive); in the experiment with SNB-19 it was 19.1 µM (inactive); in the experiment on A549, 25.1 µM (inactive).

On to `CC/C(=C/OC)P1(=O)OC(C)(C)CN1C(C)(C)C` (stereo not drawn), for which the GI50 in the experiment with NCI-H226 is > 100 µM (inactive); in the experiment with OVCAR-3, > 100 µM (inactive); in the experiment with HCT-15, > 100 µM; in the experiment on RPMI-8226 it was > 100 µM (inactive); in the experiment on U-251 it was > 100 µM (inactive); in the experiment on IGROV-1, > 100 µM (inactive). Also, the GI50 in the experiment with SK-MEL-2, in the experiment on SW-620, in the experiment with OVCAR-8, in the experiment with TK-10, with OVCAR-4 and with EKVX was > 100 µM (inactive) in each case. The GI50 in the experiment on SNB-19, in the experiment with HCC 2998, in the experiment on M14 and in the experiment on A549 was > 100 µM (inactive) throughout.

Turning to `CC1(O)Oc2ccc3ccccc3c2C=C1C(N)=O` (stereo not drawn), the GI50 in the experiment on HCT-15 was 53.7 µM; with RPMI-8226 it was 33.3 µM (inactive); in the experiment with U-251, > 100 µM (inactive); with IGROV-1, 79.8 µM (inactive); in the experiment on SK-MEL-2, 40.4 µM (inactive); with SW-620 it was > 100 µM (inactive). Moreover, the GI50 in the experiment with SNB-75 was 52 µM (inactive); with TK-10 it was > 100 µM (inactive); with OVCAR-4 it was 72.9 µM (inactive); in the experiment with EKVX, 54 µM (inactive); in the experiment on SNB-19, > 100 µM (inactive); in the experiment with HCC 2998, > 100 µM (inactive). Also, the GI50 in the experiment on M14 is 66.4 µM (inactive).
